The source of these data is patent publication US12453725B2, “Treatment of inflammatory disease” (Celleron Therapeutics Limited, priority 2019, dated 2025).

Data set [1] relates to histone H3 acetylation. The data set is described as follows: Histone H3 acetylation, SW620 cells (western blot). The class given is cell-based, human. As to conditions: SW620, 72 hours. The protocol:
Cell pellets were lysed in TNN buffer, for 30 minutes on ice and centrifuged for another 30 minutes at maximum speed at 4° C. Protein concentration was assessed by Bradford assay (Quick Start™ Bradford 1× Dye Reagent, Bio-Rad Laboratories, USA). After gel electrophoresis, proteins were transferred onto the PVDF membrane by means of Trans-Blot® Turbo™ Transfer System (Bio-Rad Laboratories, USA) and blocked by 1 h incubation in 5% skim milk (Merck Group, Germany) in PBST at RT. To confirm acetylation induced by CXD101, membranes were incubated with anti-H3 (ab1791, abcam) antibody, anti-H3Ack9 (ab10812, abcam) in case of CT26 cells, and for SW620 with H3Ack14 antibody (#7627, Cell Signaling) overnight, at 4° C. Next, membranes were washed and treated with secondary antibody for 1 h at RT. Chemiluminescent signals were detected by LICOR C-Digit (LI-COR Biosciences, USA), and the data quantified using ImageJ software (National Institutes of Health, USA).

Data set [2] deals with SW620 cells. Briefly: RNA-seq, SW620 cells. The class given is cell-based, human. The protocol: SW620 cells were seeded into 6-well plates and left to adhere overnight. Cells were treated with 1 μM, 10 μM of CXD101 for 48 h. CT26 cells were seeded onto 100 mm plates and treated with 2.7 μM and 10 μM CXD101 for 72 h. After treatment cells were harvested and total RNA extracted by means of Promega ReliaPrep™ RNA Cell Miniprep System (Promega, USA). RNA was dissolved in RNAse free water and stored in −80° C. for future analysis. RNA concentration was measured by NanoDrop 2000 (Thermo Fisher Scientific, USA). Samples were qualified for library preparation if […]. Library preparation with poly (A) enrichment was performed by BGI.
FASTQ files for CXD101 and DMSO treated samples in three biological replicates were trimmed to remove adapters and low-quality bases with TrimGalore v.0.4.3 (http://www.bioinformatics.babraham.ac.uk/projects/trim_galore/). The trimmed reads were aligned to the human reference genome (build hg19) with STAR aligner v.2.7 with two mismatches allowed. Differential gene expression analysis was done with the Bioconductor framework (v.3.8) and DESeq2 R package v.1.22, using read count data provided by the aligner. Genes were considered differentially expressed if the adjusted P, calculated using the Benjamini-Hochberg method in order to minimise the false discovery rate, was less than 0.01 (1%) and the change in expression level was greater than ˜2-fold as compared to DMSO control (e.g. |log_2(expression fold change)|>1).

In data set [3] the test system is SW620 human colon adenocarcinoma cells. The data set is described as follows: MTT assay, SW620 cells. It counts as cell-based. The protocol: Three human colorectal adenocarcinoma cell lines: SW620 (ATCC® CCL-227™), HCT-15 (ATCC® CCL-225™), LoVo (ATCC® CCL-229™), and one mouse colon carcinoma cell line: CT26 (ATCC® CRL-2638™) were obtained from ATCC. Human cell lines were cultured in DMEM (Lonza Group, Switzerland), while CT26 in RPMI (Biowest, France). The media were supplemented with 10% FBS and 1% penicillin-streptomycin (Lonza Group, Switzerland). Cells were cultured under standard conditions.
In order to assess the cytotoxicity of CXD101, cells were seeded onto 96-well plates overnight and the next day were dosed with CXD101 and incubated for 72 h or 120 h. Next, 100 μl of Thiazolyl Blue Tetrazolium Bromide (MTT, Sigma-Aldrich, USA) was added into a well (final concentration […]) and incubated for 2 h at 37° C. After that medium was discarded and formazan crystals were dissolved in 100 μl DMSO (VWR International, USA) by shaking for 15 minutes. Absorbance was read by Omega FLUOstar plate reader (BMG Labtech Ltd, Germany) at the 584 nm wavelength. Data were analysed and IC50 doses calculated in GraphPad Prism (GraphPad Software, USA).
(In general: Tetrazolium assays rely on reduction of a dye to a coloured formazan, in cell work by metabolically active cells.)

Data set [4] concerns HDAC Class 1l. Briefly: HDAC Class II inhibition. The class given is biochemical. The note with it: stated as no activity; read-out: activity against HDAC Class 1l.
For data set [5], the system named is A20 tumours. The data set is described as follows: Syngeneic A20 B cell lymphoma model. The class given is in vivo, mouse. As to conditions: CXD101 50 mg/kg. The text has this:
In order to rule out that the effects of the combined therapy were specific to the colon26 and MC38 colorectal cancer model, we widened the study to the syngeneic A20 B cell lymphoma model (FIG. 10). A20 tumours are reported to express high levels of PD-L1 and are responsive to immunomodulatory antibodies (32).

For data set [6] the following is noted: cited from earlier work.
Data set [7] has as its system SW620 cells. The data set is described as follows: qPCR of single genes, SW620 cells. It counts as cell-based, human. The method, then: Total RNA purified from DMSO- or CXD101 treated cells was transcribed into cDNA according to the manufacturer's instructions (iScript cDNA Synthesis Kit, Bio-Rad, USA). qPCR was conducted according to the manufacturer's protocol (SsoAdvanced Universal SYBR Green Supermix, Bio-Rad Laboratories, USA) on CFX Connect Real-Time System thermocycler (Bio-Rad Laboratories, USA).
A general note: In qPCR the cycle at which signal appears reflects the starting amount.

pIC50: −log10 of the molar value.

For `Cc1nn(C)cc1CN1CCC(c2ccc(C(=O)Nc3ccccc3N)cc2)CC1` [CXD101, N-(2-aminophenyl)-4-(1-[(1,3-dimethyl-1H-pyrazol-4-yl)methyl]piperidin-4-yl)benzamide], the “acetylation on histone H3 lysine” value in data set [1] was “increased level of acetylation”. In addition, in data set [2] (SW620), the “share of DEGs down-regulated” value was 30% and the “share of DEGs up-regulated” value is recorded as 70%. For the same compound, the “number of differentially expressed transcripts” value in data set [2] (log 2 FC >1 and FDR <1%) is recorded as “about 2500”. Besides, the “proliferation of human colon cancer cells” value in data set [3] is on record as “blocks proliferation”. Besides, in data set [4], the pIC50 is at most 5.60. For the same compound, the A20 tumour progression entry in data set [5] is on record as “modest effect”. The “patients with tumour reduction” value in data set [6] (T-cell lymphoma, follicular lymphoma, Hodgkin lymphoma) was 63%. Also, the MTD in data set [6] (for 5 days in a 3-weekly cycle) is listed as 20 mg B.D. Besides, in data set [7], the “expression of HLA-B, HLA-F, HLA-DPA1, HLA-DQB1, CTLA4, CDKN1A, TIMP3” value is recorded as “increases expression”; the “expression of PHGDH, BCL2L15” value is “decreases”; the “expression of REPIN1” value is reported as “no effect”.
